Measured values from US9642815B2, “Biocompatible graphene quantum dots for drug delivery and bioimaging applications” (Council of Scientific and Industrial Research, priority 2013, dated 2017).
“Also recorded” adds a separate entry of the source.

System: ROS
Assay: Cell free ROS assay with H2O2 and H2DCF indicator
Settings: free PEG added to C-GQDs (FIG. 18B)
Protocol: The samples (C-GQDs, H-GQDs, S-GQDs and P-GQDs) were incubated with H2O2 in 10% fetal bovine serum (FBS) solution at 37° C. Chemically hydrolyzed 2,7-dichlorodihydrofluorescein diacetate (H2DCF-DA), yielding H2DCF, was used as a fluorescent indicator of ROS production. The increase in ROS over 90 min with 10 μM and 20 μM H2O2 in the presence and absence of GQDs were monitored. In the case of C-GQDs and H-GQDs incubated with 20 μM H2O2, the ROS production increased ˜3 and ˜4 times respectively (FIG. 7A). […] Thus, confirming again the ROS quenching ability of PEG. […] The H-GQDs produced more ROS than C-GQDs, likely because of more free-radical-susceptible hydroxyl groups on the surface generated by the hydrothermal treatment.

polyethylene glycol [free PEG]
ROS quenching by free PEG in solution along with C-GQD: did not quench the ROS produced in solution; also recorded: No significant quenching
